Laboratory results from US8802597B2, “Herbicidal pyrimidines” (E I du Pont de Nemours and Company, priority 2003, dated 2014).
Like-named read-outs stand apart in the source and are kept apart here.

Key:
Format in all cases: in vivo
[1] = system: blackgrass (Alopecurus myosuroides); test: Test B postemergence; settings: Alopecurus myosuroides, post-emergence
Summary of the method: (§1)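 Formulation: non-phytotoxic solvent blend with surfactant. Timing: preemergence on seeds, postemergence at 1- to 4-leaf (2–18 cm). Assessment: visual, 0–100 against controls, after 13–15 days' greenhouse growth.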

[2] = system: wild oat (Avena fatua); test: Test B postemergence; settings: Avena fatua, post-emergence
Summary of the method: as §1

[3] = system: velvetleaf (Abutilon theophrasti); test: Test B pre/postemergence; settings: Abutilon theophrasti; for pest or weed control at 125 g/ha: 125 g ai/ha; for pest or weed control at 500 g/ha: 500 g ai/ha
Summary of the method: as §1

[4] = system: wheat (Triticum aestivum); test: Test B pre/postemergence; settings: Triticum aestivum; for plant injury at 125 g/ha: 125 g ai/ha; for plant injury at 500 g/ha: 500 g ai/ha
Summary of the method: as §1

[5] = system: corn (Zea mays); test: Test B pre/postemergence; settings: Zea mays
Summary of the method: as §1

[6] = system: pigweed (Amaranthus retroflexus); test: Test B pre/postemergence; settings: Amaranthus retroflexus; for pest or weed control at 125 g/ha: 125 g ai/ha; for pest or weed control at 500 g/ha: 500 g ai/ha
Summary of the method: as §1

[7] = system: giant foxtail (Setaria faberii); test: Test B pre/postemergence; settings: Setaria faberi; for pest or weed control at 125 g/ha: 125 g ai/ha; for pest or weed control at 500 g/ha: 500 g ai/ha
Summary of the method: as §1

[8] = system: barnyardgrass (Echinochloa crus-galli); test: Test B pre/postemergence; settings: Echinochloa crus-galli; for pest or weed control at 125 g/ha: 125 g ai/ha; for pest or weed control at 500 g/ha: 500 g ai/ha
Summary of the method: as §1

[9] = system: lambsquarters (Chenopodium album); test: Test B pre/postemergence; settings: Chenopodium album; for pest or weed control at 125 g/ha: 125 g ai/ha; for pest or weed control at 500 g/ha: 500 g ai/ha
Summary of the method: as §1

[10] = system: crabgrass (Digitaria sanguinalis); test: Test B pre/postemergence; settings: Digitaria sanguinalis; for pest or weed control at 125 g/ha: 125 g ai/ha; for pest or weed control at 500 g/ha: 500 g ai/ha
Summary of the method: as §1

[11] = system: cocklebur (Xanthium strumarium); test: Test B pre/postemergence; settings: Xanthium strumarium; for pest or weed control at 125 g/ha: 125 g ai/ha; for pest or weed control at 500 g/ha: 500 g ai/ha
Summary of the method: as §1

[12] = system: morningglory (Ipomoea coccinea); test: Test B pre/postemergence; settings: Ipomoea; for pest or weed control at 125 g/ha: 125 g ai/ha; for pest or weed control at 500 g/ha: 500 g ai/ha
Summary of the method: as §1

[13] = system: Surinam grass (Brachiaria decumbens); test: Test B pre/postemergence; settings: Urochloa decumbens; for pest or weed control at 125 g/ha: 125 g ai/ha; for pest or weed control at 500 g/ha: 500 g ai/ha
Summary of the method: as §1

[14] = system: duck salad (Heteranthera limosa); test: Test B flooded paddy test; settings: Heteranthera limosa, Flood, 1000 g ai/ha; scale 0 to 100; read-out: Plant response rating, Ducksalad
Summary of the method: (§2)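 Rice, umbrella sedge, duck salad and barnyardgrass grown to 2-leaf stage under flooded paddy conditions and treated with formulated test chemicals. Kept in greenhouse 13–15 days, then visually rated against untreated controls on a 0–100 scale (0 no effect, 100 complete control).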

[15] = system: barnyardgrass (Echinochloa crus-galli); test: Test B flooded paddy test; settings: Echinochloa crus-galli, Flood, 1000 g ai/ha; scale 0 (no effect) to 100 (complete control); read-out: Plant response rating, Barnyardgrass
Summary of the method: as §2

[16] = system: rice (Oryza sativa); test: Test B flooded paddy test; settings: Oryza sativa, Flood, 1000 g ai/ha; scale 0 to 100; read-out: Plant response rating, Rice
Summary of the method: as §2

[17] = system: umbrella sedge (Cyperus difformis); test: Test B flooded paddy test; settings: Cyperus difformis, Flood, 1000 g ai/ha; scale 0 to 100; read-out: Plant response rating, Sedge, Umbrella
Summary of the method: as §2

COC(=O)c1nc(C2CC2)nc(N)c1F [Compound 25]
40%: pest or weed control at 125 g/ha ([7]; pre-emergence, Preemergence, scale 0 to 100 (0 no effect, 100 complete control), read-out: Plant response rating, Foxtail, Giant) | pest or weed control at 125 g/ha ([8]; post-emergence, Postemergence, scale 0 to 100 (0 no effect, 100 complete control), read-out: Barnyardgrass plant response rating) | pest or weed control at 1000 g/ha [14] | pest or weed control at 1000 g/ha [17]
80%: pest or weed control at 500 g/ha ([3]; pre-emergence, Preemergence, scale 0 to 100 (0 no effect, 100 complete control), read-out: Velvetleaf plant response rating) | pest or weed control at 125 g/ha ([6]; pre-emergence, Preemergence, scale 0 to 100 (0 no effect, 100 complete control), read-out: Plant response rating, Pigweed) | pest or weed control at 500 g/ha ([7]; post-emergence, Postemergence, scale 0 to 100, read-out: Plant response rating, Foxtail, Giant) | pest or weed control at 500 g/ha ([7]; pre-emergence, Preemergence, scale 0 to 100 (0 no effect, 100 complete control), read-out: Foxtail, Giant plant response rating) | pest or weed control at 500 g/ha ([8]; post-emergence, Postemergence, scale 0 to 100, read-out: Plant response rating, Barnyardgrass) | pest or weed control at 500 g/ha ([10]; post-emergence, Postemergence, scale 0 to 100, read-out: Plant response rating, Crabgrass) | pest or weed control at 125 g/ha ([11]; pre-emergence, Preemergence, scale 0 to 100 (0 no effect, 100 complete control), read-out: Plant response rating, Cocklebur) | pest or weed control at 125 g/ha ([12]; pre-emergence, Preemergence, scale 0 to 100 (0 no effect, 100 complete control), read-out: Plant response rating, Morningglory)
0%: plant injury at 125 g/ha ([5]; post-emergence, Postemergence, 125 g ai/ha, scale 0 to 100 (0 no effect, 100 complete control), read-out: Corn plant response rating) | Corn plant response rating (crop injury, 0 = no effect, 100 = complete kill) at 125 g/ha ([5]; pre-emergence, Preemergence, 125 g ai/ha, scale 0 to 100 (0 no effect, 100 complete control)) | plant injury at 500 g/ha ([5]; pre-emergence, Preemergence, 500 g ai/ha, scale 0 to 100 (0 no effect, 100 complete control), read-out: Corn plant response rating)
70%: pest or weed control at 500 g/ha ([3]; post-emergence, Postemergence, scale 0 to 100, read-out: Plant response rating, Velvetleaf) | pest or weed control at 125 g/ha ([3]; pre-emergence, Preemergence, scale 0 to 100 (0 no effect, 100 complete control), read-out: Plant response rating, Velvetleaf) | pest or weed control at 500 g/ha ([10]; pre-emergence, Preemergence, scale 0 to 100 (0 no effect, 100 complete control), read-out: Crabgrass plant response rating) | pest or weed control at 500 g/ha ([13]; post-emergence, Postemergence, scale 0 to 100, read-out: Plant response rating, Surinam Grass) | pest or weed control at 500 g/ha ([13]; pre-emergence, Preemergence, scale 0 to 100 (0 no effect, 100 complete control), read-out: Surinam Grass plant response rating)
30%: plant injury at 500 g/ha ([4]; post-emergence, Postemergence, scale 0 to 100, read-out: Plant response rating, Wheat) | Corn plant response rating (crop injury, 0 = no effect, 100 = complete kill) at 500 g/ha ([5]; post-emergence, Postemergence, 500 g ai/ha, scale 0 to 100) | pest or weed control at 1000 g/ha [15] | plant injury at 1000 g/ha [16]
60%: pest or weed control at 500 g/ha ([1]; 500 g ai/ha, scale 0 to 100, read-out: Plant response rating, Blackgrass) | pest or weed control at 125 g/ha ([3]; post-emergence, Postemergence, scale 0 to 100 (0 no effect, 100 complete control), read-out: Velvetleaf plant response rating) | plant injury at 500 g/ha ([4]; pre-emergence, Preemergence, scale 0 to 100 (0 no effect, 100 complete control), read-out: Wheat plant response rating) | pest or weed control at 500 g/ha ([8]; pre-emergence, Preemergence, scale 0 to 100 (0 no effect, 100 complete control), read-out: Barnyardgrass plant response rating) | pest or weed control at 125 g/ha ([10]; post-emergence, Postemergence, scale 0 to 100 (0 no effect, 100 complete control), read-out: Crabgrass plant response rating) | pest or weed control at 125 g/ha ([10]; pre-emergence, Preemergence, scale 0 to 100 (0 no effect, 100 complete control), read-out: Plant response rating, Crabgrass)
90%: pest or weed control at 125 g/ha ([6]; post-emergence, Postemergence, scale 0 to 100 (0 no effect, 100 complete control), read-out: Pigweed plant response rating) | pest or weed control at 500 g/ha ([6]; pre-emergence, Preemergence, scale 0 to 100 (0 no effect, 100 complete control), read-out: Pigweed plant response rating) | pest or weed control at 125 g/ha ([9]; post-emergence, Postemergence, scale 0 to 100 (0 no effect, 100 complete control), read-out: Lambsquarters plant response rating) | pest or weed control at 500 g/ha ([9]; post-emergence, Postemergence, scale 0 to 100, read-out: Plant response rating, Lambsquarters) | pest or weed control at 125 g/ha ([9]; pre-emergence, Preemergence, scale 0 to 100 (0 no effect, 100 complete control), read-out: Plant response rating, Lambsquarters) | pest or weed control at 500 g/ha ([9]; pre-emergence, Preemergence, scale 0 to 100 (0 no effect, 100 complete control), read-out: Lambsquarters plant response rating) | pest or weed control at 125 g/ha ([11]; post-emergence, Postemergence, scale 0 to 100 (0 no effect, 100 complete control), read-out: Cocklebur plant response rating) | pest or weed control at 500 g/ha ([11]; post-emergence, Postemergence, scale 0 to 100, read-out: Plant response rating, Cocklebur) | pest or weed control at 500 g/ha ([11]; pre-emergence, Preemergence, scale 0 to 100 (0 no effect, 100 complete control), read-out: Cocklebur plant response rating) | pest or weed control at 125 g/ha ([12]; post-emergence, Postemergence, scale 0 to 100 (0 no effect, 100 complete control), read-out: Morningglory plant response rating) | pest or weed control at 500 g/ha ([12]; post-emergence, Postemergence, scale 0 to 100, read-out: Plant response rating, Morningglory) | pest or weed control at 500 g/ha ([12]; pre-emergence, Preemergence, scale 0 to 100 (0 no effect, 100 complete control), read-out: Morningglory plant response rating)
20%: pest or weed control at 500 g/ha ([2]; 500 g ai/ha, scale 0 to 100, read-out: Plant response rating, Oat, Wild) | plant injury at 125 g/ha ([4]; post-emergence, Postemergence, scale 0 to 100 (0 no effect, 100 complete control), read-out: Wheat plant response rating) | pest or weed control at 125 g/ha ([8]; pre-emergence, Preemergence, scale 0 to 100 (0 no effect, 100 complete control), read-out: Plant response rating, Barnyardgrass) | pest or weed control at 125 g/ha ([13]; pre-emergence, Preemergence, scale 0 to 100 (0 no effect, 100 complete control), read-out: Plant response rating, Surinam Grass)
10%: pest or weed control at 125 g/ha ([1]; 125 g ai/ha, scale 0 to 100 (0 no effect, 100 complete control), read-out: Blackgrass plant response rating) | pest or weed control at 125 g/ha ([2]; 125 g ai/ha, scale 0 to 100 (0 no effect, 100 complete control), read-out: Oat, Wild plant response rating)
100%: pest or weed control at 500 g/ha ([6]; post-emergence, Postemergence, scale 0 to 100, read-out: Plant response rating, Pigweed)
50%: plant injury at 125 g/ha ([4]; pre-emergence, Preemergence, scale 0 to 100 (0 no effect, 100 complete control), read-out: Plant response rating, Wheat) | pest or weed control at 125 g/ha ([7]; post-emergence, Postemergence, scale 0 to 100 (0 no effect, 100 complete control), read-out: Foxtail, Giant plant response rating) | pest or weed control at 125 g/ha ([13]; post-emergence, Postemergence, scale 0 to 100 (0 no effect, 100 complete control), read-out: Surinam Grass plant response rating)
